# From US6358948B1 (American Home Products Corporation, priority 1999, dated 2002)
# Values joined by “and” are separate entries in the source; they are usually repeats but may differ in a detail not shown here. Equal entries are not always repeated.
# Test system: T47D cells
# Assay: T47D cell proliferation assay (BrdU incorporation)
# Type: cell-based
# Settings: half-maximal increase in BrdU incorporation in T47D cells; individual studies
# Method: 3. T47D Cell Proliferation Assay
# The objective of this assay is the determination of progestational and antiprogestational potency by using a cell proliferation assay in T47D cells. A compound's effect on DNA synthesis in T47D cells is measured.
# DMEM:F12 (1:1) (GIBCO, BRL) supplemented with 10% (v/v) fetal bovine serum (not heat-inactivated), 100 U/ml penicillin, […], and 2 mM GlutaMax (GIBCO, BRL).
# Minimum Essential Medium (MEM) (#51200-038GIBCO, BRL) phenol red-free supplemented with 0.5% charcoal stripped fetal bovine serum, 100 U/ml penicillin, 200 mg/ml streptomycin, and 2 mM GlutaMax (GIBCO, BRL).
# Stock T47 D cells are maintained in growth medium. For BrdU incorporation assay, cells are plated in 96-well plates (Falcon, Becton Dickinson Labware) at 10,000 cells/well in growth medium. […]
# At the end of BrdU labeling, the medium is removed and BrdU incorporation is measured using a cell proliferation ELISA kit (#RPN 250, Amersham Life Science) according to manufacturer's instructions. […] Then 25 μl of 1 M sulfuric acid is added to each well to stop color reaction and optical density is read in a plate reader at 450 nm within 5 min.
# Square root-transformed data are used for analysis of variance and nonlinear dose response curve fitting for both agonist and antagonist modes. […] EC50 or IC50 values are calculated from the retransformed values. […]
row,EC50,SMILES
1,0.019 nM,"CC(=O)O[C@]1(C(C)=O)CC[C@H]2[C@@H]3C[C@H](C)C4=CC(=O)CC[C@]4(C)[C@H]3CC[C@@]21C [MPA, medroxyprogesterone acetate]"
2,0.017 nM and 0.014 nM and 0.019 nM,C[C@H](O)C(=O)[C@@]1(C)CC[C@H]2[C@@H]3CCC4=CC(=O)CCC4=C3CC[C@@]21C [Trimegestone]
